Experimental data taken from ChEMBL document CHEMBL1135360, “The design and synthesis of a novel series of indole derived selective ET(A) antagonists” (Bioorg Med Chem Lett, 2002).

Legend:
[1] = molecular target: T1, Endothelin-1 receptor (Homo sapiens, UniProt P25101); assay: Displacement of [125I]-labeled ET-1 from human cloned endothelin A (ETA) receptor
T1 sequence (P25101 whole entry): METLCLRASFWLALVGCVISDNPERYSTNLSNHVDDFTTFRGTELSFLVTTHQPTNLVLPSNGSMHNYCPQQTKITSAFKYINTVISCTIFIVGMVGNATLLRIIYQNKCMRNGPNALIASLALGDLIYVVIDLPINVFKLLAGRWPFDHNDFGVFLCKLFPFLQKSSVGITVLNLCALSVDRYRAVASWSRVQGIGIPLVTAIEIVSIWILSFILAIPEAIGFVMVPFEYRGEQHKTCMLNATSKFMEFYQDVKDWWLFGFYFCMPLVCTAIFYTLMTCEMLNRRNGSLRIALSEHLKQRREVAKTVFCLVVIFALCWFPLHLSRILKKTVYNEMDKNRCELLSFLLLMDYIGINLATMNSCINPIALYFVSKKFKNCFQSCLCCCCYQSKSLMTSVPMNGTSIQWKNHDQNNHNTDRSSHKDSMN

[2] = molecular target: T2, Endothelin receptor type B (Homo sapiens, UniProt P24530); assay: Binding affinity towards human cloned endothelin B receptor by [125I]ET1 displacement.
T2 sequence (P24530 whole entry): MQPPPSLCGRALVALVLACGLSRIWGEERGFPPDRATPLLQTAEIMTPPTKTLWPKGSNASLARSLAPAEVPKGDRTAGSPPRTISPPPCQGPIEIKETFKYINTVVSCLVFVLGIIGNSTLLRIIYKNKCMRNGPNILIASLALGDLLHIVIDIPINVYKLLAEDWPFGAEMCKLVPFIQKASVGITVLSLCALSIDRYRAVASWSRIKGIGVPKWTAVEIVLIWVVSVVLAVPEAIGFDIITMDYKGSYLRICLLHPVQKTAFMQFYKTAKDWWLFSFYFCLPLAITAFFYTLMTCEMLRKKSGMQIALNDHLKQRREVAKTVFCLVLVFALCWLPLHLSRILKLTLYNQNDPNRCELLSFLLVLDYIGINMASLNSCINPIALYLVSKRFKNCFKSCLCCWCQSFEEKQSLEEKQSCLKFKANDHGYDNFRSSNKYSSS

[3] = molecular target: Endothelin receptor, ET-A/ET-B (Homo sapiens) (UniProt P24530+P25101); assay: Ratio of binding affinity at Endothelin-A receptors compared to Endothelin-B receptors.; format: protein assay

SMILES | IC50 [1] [µM] | IC50 [2] [µM] | Ratio [3]
CCn1cc(C(C(=O)NS(=O)(=O)c2ccc(C(C)C)cc2)c2ccc3c(c2)OCO3)c2ccc(C(=O)OC)cc21 (stereo unspecified) | 0.21 | – | –
CC(C)c1ccc(S(=O)(=O)NC(=O)C(c2ccc3c(c2)OCO3)c2cn(C)c3cc(CO)ccc23)cc1 (stereo unspecified) | 0.019 | 0.45 | 23.7
Cn1cc(C(C(=O)NS(=O)(=O)c2ccc(Cl)cc2)c2ccc3c(c2)OCO3)c2ccc(C(N)=O)cc21 (stereo unspecified) | 0.0075 | 1.1 | 146
CC(C)c1ccc(S(=O)(=O)NC(=O)C(c2ccc3c(c2)OCO3)c2cn(C)c3cc(C#N)ccc23)cc1 (stereo unspecified) | 0.061 | – | –
Cc1ccccc1S(=O)(=O)NC(=O)C(c1ccc2c(c1)OCO2)c1cn(C)c2cc(C(N)=O)ccc12 (stereo unspecified) | 0.0052 | 1.06 | 203
Cn1cc(C(C(=O)NS(=O)(=O)c2ccc(C(F)(F)F)cc2)c2ccc3c(c2)OCO3)c2ccc(C(N)=O)cc21 (stereo unspecified) | 0.0065 | 0.228 | 35
CC(C)c1ccc(S(=O)(=O)NC(=O)C(c2ccc3c(c2)OCO3)c2c[nH]c3cc(C(=O)O)ccc23)cc1 (stereo unspecified) | 0.031 | – | –
CC(C)c1ccc(S(=O)(=O)NC(=O)C(c2ccc3c(c2)OCO3)c2cn(C)c3cc(C(=O)O)ccc23)cc1 (stereo unspecified) | 0.022 | 1.5 | 68.2
CCn1cc(C(C(=O)NS(=O)(=O)c2ccc(C(C)C)cc2)c2ccc3c(c2)OCO3)c2ccc(C(=O)O)cc21 (stereo unspecified) | 0.032 | 2.2 | 68.8
CCn1cc(C(C(=O)NS(=O)(=O)c2ccc(C(C)C)cc2)c2ccc3c(c2)OCO3)c2ccc(C(=O)NC)cc21 (stereo unspecified) | 0.03 | 0.21 | 7
CC(C)c1ccc(S(=O)(=O)NC(=O)C(c2ccc3c(c2)OCO3)c2cn(C)c3cc(-c4nn[nH]n4)ccc23)cc1 (stereo unspecified) | 0.035 | – | –
COc1ccccc1S(=O)(=O)NC(=O)C(c1ccc2c(c1)OCO2)c1cn(C)c2cc(C(N)=O)ccc12 (stereo unspecified) | 0.005 | 0.31 | 62
CCn1cc(C(C(=O)NS(=O)(=O)c2ccc(C(C)C)cc2)c2ccc3c(c2)OCO3)c2ccc(C(=O)N(C)C)cc21 (stereo unspecified) | 0.072 | 0.474 | 6.6
COC(=O)c1ccc2c(C(C(=O)NS(=O)(=O)c3ccc(C(C)C)cc3)c3ccc4c(c3)OCO4)cn(C)c2c1 (stereo unspecified) | 0.1 | – | –
Cn1cc(C(C(=O)NS(=O)(=O)c2ccccc2)c2ccc3c(c2)OCO3)c2ccc(C(N)=O)cc21 (stereo unspecified) | 0.012 | 2.57 | 184
CC(C)c1ccc(S(=O)(=O)NC(=O)C(c2ccc3c(c2)OCO3)c2cn(C)c3cc(CN)ccc23)cc1 (stereo unspecified) | 0.038 | 0.204 | 5.4

The next molecules have a lower IC50 [1] than those just listed; values first:

IC50 [1] [µM] | IC50 [2] [µM] | Ratio [3] | SMILES
0.0023 | 0.034 | 14.8 | CC(C)c1ccc(S(=O)(=O)NC(=O)C(c2ccc3c(c2)OCO3)c2cn(C)c3cc(C(N)=O)ccc23)cc1 (stereo unspecified)
0.0031 | 0.846 | 272 | Cn1cc(C(C(=O)NS(=O)(=O)c2ccccc2C(=O)O)c2ccc3c(c2)OCO3)c2ccc(C(N)=O)cc21 (stereo unspecified)
0.0008 | 0.016 | – | COc1cc(OC)nc(O[C@H](C(=O)O)C(OC)(c2ccccc2)c2ccccc2)n1 [DARUSENTAN]
0.0028 | 0.094 | 34 | COc1ccc(S(=O)(=O)NC(=O)C(c2ccc3c(c2)OCO3)c2cn(C)c3cc(C(N)=O)ccc23)cc1 (stereo unspecified)
0.0035 | 0.068 | 19.7 | CCn1cc(C(C(=O)NS(=O)(=O)c2ccc(C(C)C)cc2)c2ccc3c(c2)OCO3)c2ccc(C(N)=O)cc21 (stereo unspecified)
0.00055 | 0.397 | 722 | CCOc1cc(C)ccc1S(=O)(=O)NC(=O)C(c1ccc2c(c1)OCO2)c1cn(C)c2cc(C(N)=O)ccc12 (stereo unspecified)
0.0018 | 0.774 | 430 | Cc1ccc(S(=O)(=O)NC(=O)C(c2ccc3c(c2)OCO3)c2cn(C)c3cc(C(N)=O)ccc23)cc1 (stereo unspecified)
0.0011 | 0.302 | 275 | COc1cc(C)ccc1S(=O)(=O)NC(=O)C(c1ccc2c(c1)OCO2)c1cn(C)c2cc(C(N)=O)ccc12 (stereo unspecified)
